Measurements from patent publication EP0089901A1, “New 2-oxo-1-pyrrolidineacetic acid esters, their methods of production and therapeutic compositions containing the same” (PRODES S.A., priority 1982, dated 1983).

Columns and labels:
mouse = assay: Unspecific protection against lethality: gasping time after quick decapitation; format: in vivo; details: gasping time after decapitation of mouse
Description: The second trial is the quick decapitation of mouse. The head has a typical mandibular movement, known as gasping, as searching the breathing air.

animals [1] = assay: Unspecific protection against lethality: hypoxia-hypobara (decompression), survival time; format: in vivo; details: survival time under decompression
Description: We have chosen the hypoxia-hypobara : the decompression kills the animals, because of the lack of 02.

anesthetized dogs = assay: Electromagnetic blood flow measurement (vertebral/cerebral blood flow); format: in vivo; details: vertebral blood flow
Protocol: After orotraqueal intubation, artificial respiration with normal air was instituted using a Manley Pulmovent respirator. The correct ventilation of the dogs was checked after all the surgical procedures by determining the p02, pC02, and pH in arterial blood samples, as well as several times during the experiment by means of an Astrup apparatus. Blood pressure was measured in left saphenous artery by means of a Bell & Howell pressure transducer, and the heart rate by means of a Beckman ECG device. Recordings were made on an ink-writing Beckman polygraph. Left saphenous vein and right saphenous artery were cannulated with polyethylene catheters for drug administration and blood collection respectively.
Vertebral blood flow was measured by a non-cannulating electro-magnetic flowmeter (Carolina Medical Electronics) placed in the vertebral artery.
The Carolina digital flowmeter was connected to an Omniscribe Houston Instruments plotter.
Piracetam and nicotinic acid were used as control drugs.

[2] = LD50 of representative compounds; details: in vivo
Description: LD50 of representative compounds included in Table III.

animals [3] = assay: Unspecific protection against lethality: anoxia by CNK, survival time; format: in vivo; details: survival time after CNK

With `CC1CC(OC(=O)CN2CCCC2=O)CC(C)(C)C1` (mixture of isomers) [cis/trans 3,3,5-trimethylcyclohexyl 2-oxo-l-pyrrolidineacetate] the GASPING (mouse; DOSE 500mg/kg) was “Very active”, the “HYPOXIA HYPOBARA” value (animals [1]; DOSE 500mg/kg) was “Active” and the EFFECT (anesthetized dogs; DOSE 1 mg/kg) was “Active”. For the same compound, the LD50 [2] was 3170 mg/kg and the “ANOXIA BY CNK” value (animals [3]; DOSE 500mg/kg) was “Very active”.
In the case of `O=C1NC(=O)C(c2ccccc2)(c2ccccc2)N1` [Difenilhydantoine, reference compound], the GASPING (mouse; DOSE 100mg/kg) is reported as “Very active”, the “HYPOXIA HYPOBARA” value (animals [1]; DOSE 100mg/kg) is reported as “Active” and the “ANOXIA BY CNK” value (animals [3]; DOSE 100mg/kg) is reported as “Active”.
In the case of `O=C(O)c1cccnc1` [Nicotinic acid], the EFFECT (anesthetized dogs; no dose given) is reported as “No effect”.
In the case of `COc1ccc(Cc2nccc3cc(OC)c(OC)cc23)cc1OC` [Papaverine], the EFFECT (anesthetized dogs; DOSE 0.5 mg/kg) is reported as “Active”.
With `NC(=O)CN1CCCC1=O` [Piracetam, 2-oxo-1-pyrrolidineacetamide, reference compound] the GASPING (mouse; DOSE 1000mg/kg) was “No effect”, the “HYPOXIA HYPOBARA” value (animals [1]; DOSE 1000mg/kg) was “No effect” and the EFFECT (anesthetized dogs; no dose given) was “No effect”. For the same compound, the “ANOXIA BY CNK” value (animals [3]; DOSE 1000mg/kg) was “No effect”.
For `CCC(C(=O)OC1CC(C)CC(C)(C)C1)N1CCCC1=O` (stereo not drawn) [cis 3,3,5-trimethylcyclohexyl 2-(2-oxo-l-pyrrolidinyl)butyrate], the GASPING (mouse; DOSE 500mg/kg) was “Very active”, the “HYPOXIA HYPOBARA” value (animals [1]; DOSE 500mg/kg) was “Active” and the EFFECT (anesthetized dogs; DOSE 0.5 mg/kg) was “Active”. The LD50 [2] was 2850 mg/kg and the “ANOXIA BY CNK” value (animals [3]; DOSE 500mg/kg) was “Very active”.
